# Laboratory results as given in patent publication EP0198522A1, “Heterocyclic herbicides” (SHELL INTERNATIONALE RESEARCH MAATSCHAPPIJ B.V., priority 1985, dated 1986).
# Tests used:
# Format in all cases: in vivo
# [1] = test system: rice, Oryza sativa; experiment: Herbicidal activity, post-emergence soil drench test; conditions: 10 kg/ha soil drench; assessed visually thirteen days after drenching; 0-9 scale, 0 = growth as untreated control, 9 = death
# Procedure: (§1) To evaluate their herbicidal activity, compounds according to the invention were tested using as representative range of plants: maize, Zea mays (Mz); rice, Oryza sativa (R); barnyard grass, Echinochloa crusgalli (BG); oat, Avena sativa (0); linseed, Linum usitatissisum (L); mustard, Sinapsis alba (M); sugar beet, Beta vulgaris (SB) and soya bean, Glycine max (S).
# (§2) The tests fall into two categories, pre-emergence and post-emergence. […] The post-emergence tests involved two types of test, viz., soil drench and foliar spray tests. In the soil drench tests the soil in which the seedling plants of the above species were growing was drenched with a liquid formulation containing a compound of the invention, and in the foliar spray tests the seedling plants were sprayed with such a formulation.
# (§3) The soil used in the tests was a prepared horticultural loam.
# (§4) These acetone solutions were diluted with water and the resulting formulations applied at dosage levels corresponding to 5 kg or 1 kg of active material per hectare in a volume equivalent to 600 litres per hectare in the soil spray and foliar spray test, and at a dosage of level equivalent to 10 kilograms of active material per hectare in a volume equivalent to approximately 3,000 litres per hectare in the soil drench tests.
# (§5) In the pre-emexgence tests untreated sown soil and in the post-emergence tests untreated soil bearing seedling plants were used as controls.
# (§6) The herbicidal effects of the test compounds were assessed visually twelve days after spraying the foliage and the soil, and thirteen days after drenching the soil and were recorded on a 0-9 scale. A rating 0 indicates growth as untreated control, a rating 9 indicates death. An increase of 1 unit on the linear scale approximates to a 10% increase in the level of effect.
# [2] = test system: mustard, Sinapsis alba; experiment: as above; conditions: 10 kg/ha soil drench; assessed visually thirteen days after drenching; 0-9 scale, 0 = growth as untreated control, 9 = death
# Procedure: as §1, §2, §3, §4, §5, §6
# [3] = test system: oat, Avena sativa; experiment: as above; conditions: 10 kg/ha soil drench; assessed visually thirteen days after drenching; 0-9 scale, 0 = growth as untreated control, 9 = death
# Procedure: as §1, §2, §3, §4, §5, §6
# [4] = test system: sugar beet, Beta vulgaris; experiment: as above; conditions: 10 kg/ha soil drench; assessed visually thirteen days after drenching; 0-9 scale, 0 = growth as untreated control, 9 = death
# Procedure: as §1, §2, §3, §4, §5, §6
# [5] = test system: soya bean, Glycine max; experiment: as above; conditions: 10 kg/ha soil drench; assessed visually thirteen days after drenching; 0-9 scale, 0 = growth as untreated control, 9 = death
# Procedure: as §1, §2, §3, §4, §5, §6
# [6] = test system: barnyard grass, Echinochloa crusgalli; experiment: as above; conditions: 10 kg/ha soil drench; assessed visually thirteen days after drenching; 0-9 scale, 0 = growth as untreated control, 9 = death
# Procedure: as §1, §2, §3, §4, §5, §6
# [7] = test system: linseed, Linum usitatissisum; experiment: as above; conditions: 10 kg/ha soil drench; assessed visually thirteen days after drenching; 0-9 scale, 0 = growth as untreated control, 9 = death
# Procedure: as §1, §2, §3, §4, §5, §6
# [8] = test system: maize, Zea mays; experiment: as above; conditions: 10 kg/ha soil drench; assessed visually thirteen days after drenching; 0-9 scale, 0 = growth as untreated control, 9 = death
# Procedure: as §1, §2, §3, §4, §5, §6
# [9] = test system: rice, Oryza sativa; experiment: Herbicidal activity, pre-emergence test (soil spray); conditions: assessed visually twelve days after spraying, 0-9 scale, 0 = growth as untreated control, 9 = death
# Procedure: as §1, §2, §3, §4, §5, §6
# [10] = test system: mustard, Sinapsis alba; experiment: as above; conditions: assessed visually twelve days after spraying, 0-9 scale, 0 = growth as untreated control, 9 = death
# Procedure: as §1, §2, §3, §4, §5, §6
# [11] = test system: oat, Avena sativa; experiment: as above; conditions: assessed visually twelve days after spraying, 0-9 scale, 0 = growth as untreated control, 9 = death
# Procedure: as §1, §2, §3, §4, §5, §6
# [12] = test system: sugar beet, Beta vulgaris; experiment: as above; conditions: assessed visually twelve days after spraying, 0-9 scale, 0 = growth as untreated control, 9 = death
# Procedure: as §1, §2, §3, §4, §5, §6
# [13] = test system: soya bean, Glycine max; experiment: as above; conditions: assessed visually twelve days after spraying, 0-9 scale, 0 = growth as untreated control, 9 = death
# Procedure: as §1, §2, §3, §4, §5, §6
# [14] = test system: barnyard grass, Echinochloa crusgalli; experiment: as above; conditions: assessed visually twelve days after spraying, 0-9 scale, 0 = growth as untreated control, 9 = death
# Procedure: as §1, §2, §3, §4, §5, §6
# [15] = test system: linseed, Linum usitatissisum; experiment: as above; conditions: assessed visually twelve days after spraying, 0-9 scale, 0 = growth as untreated control, 9 = death
# Procedure: as §1, §2, §3, §4, §5, §6
# [16] = test system: maize, Zea mays; experiment: as above; conditions: assessed visually twelve days after spraying, 0-9 scale, 0 = growth as untreated control, 9 = death
# Procedure: as §1, §2, §3, §4, §5, §6
# [17] = test system: rice, Oryza sativa; experiment: Herbicidal activity, post-emergence foliar spray test; conditions: assessed visually twelve days after spraying, 0-9 scale, 0 = growth as untreated control, 9 = death
# Procedure: as §1, §2, §3, §4, §5, §6
# [18] = test system: mustard, Sinapsis alba; experiment: as above; conditions: assessed visually twelve days after spraying, 0-9 scale, 0 = growth as untreated control, 9 = death
# Procedure: as §1, §2, §3, §4, §5, §6
# [19] = test system: oat, Avena sativa; experiment: as above; conditions: assessed visually twelve days after spraying, 0-9 scale, 0 = growth as untreated control, 9 = death
# Procedure: as §1, §2, §3, §4, §5, §6
# [20] = test system: sugar beet, Beta vulgaris; experiment: as above; conditions: assessed visually twelve days after spraying, 0-9 scale, 0 = growth as untreated control, 9 = death
# Procedure: as §1, §2, §3, §4, §5, §6
# [21] = test system: soya bean, Glycine max; experiment: as above; conditions: assessed visually twelve days after spraying, 0-9 scale, 0 = growth as untreated control, 9 = death
# Procedure: as §1, §2, §3, §4, §5, §6
# [22] = test system: barnyard grass, Echinochloa crusgalli; experiment: as above; conditions: assessed visually twelve days after spraying, 0-9 scale, 0 = growth as untreated control, 9 = death
# Procedure: as §1, §2, §3, §4, §5, §6
# [23] = test system: linseed, Linum usitatissisum; experiment: as above; conditions: assessed visually twelve days after spraying, 0-9 scale, 0 = growth as untreated control, 9 = death
# Procedure: as §1, §2, §3, §4, §5, §6
# [24] = test system: maize, Zea mays; experiment: as above; conditions: assessed visually twelve days after spraying, 0-9 scale, 0 = growth as untreated control, 9 = death
# Procedure: as §1, §2, §3, §4, §5, §6
compound,measurement,setting,value
"CC(C)C1(C)NC(c2nc3cc4c(cc3cc2C(=O)[O-])OCO4)=NC1=O.[Na+] (stereo not shown) [Example 4, Sodivmt-2-(5-isopropyl-5-methyl-4-oxo-2-imidazolin-2-yl)-[1,3]-dioxolo[4,5-g] quinoline-3-carboxylic acid (salt)]",Soil drench 10/kg/ha R (herbicidal effect rating),[1],5
same,Soil drench 10/kg/ha M (herbicidal effect rating),[2],8
same,Soil drench 10/kg/ha O (herbicidal effect rating),[3],4
same,Soil drench 10/kg/ha SB (herbicidal effect rating),[4],8
same,Soil drench 10/kg/ha S (herbicidal effect rating),[5],6
same,Soil drench 10/kg/ha BG (herbicidal effect rating),[6],8
same,Soil drench 10/kg/ha L (herbicidal effect rating),[7],6
same,Soil drench 10/kg/ha Mz (herbicidal effect rating),[8],5
same,Pre-emergence R (herbicidal effect rating),[9]; Dosage 1 kg/ha,8
same,Pre-emergence R (herbicidal effect rating),[9]; Dosage 5 kg/ha,9
same,Pre-emergence M (herbicidal effect rating),[10]; Dosage 1 kg/ha,7
same,Pre-emergence M (herbicidal effect rating),[10]; Dosage 5 kg/ha,7
same,Pre-emergence O (herbicidal effect rating),[11]; Dosage 1 kg/ha,5
same,Pre-emergence O (herbicidal effect rating),[11]; Dosage 5 kg/ha,6
same,Pre-emergence SB (herbicidal effect rating),[12]; Dosage 1 kg/ha,8
same,Pre-emergence SB (herbicidal effect rating),[12]; Dosage 5 kg/ha,8
same,Pre-emergence S (herbicidal effect rating),[13]; Dosage 1 kg/ha,2
same,Pre-emergence S (herbicidal effect rating),[13]; Dosage 5 kg/ha,5
same,Pre-emergence BG (herbicidal effect rating),[14]; Dosage 1 kg/ha,8
same,Pre-emergence BG (herbicidal effect rating),[14]; Dosage 5 kg/ha,8
same,Pre-emergence L (herbicidal effect rating),[15]; Dosage 1 kg/ha,8
same,Pre-emergence L (herbicidal effect rating),[15]; Dosage 5 kg/ha,9
same,Pre-emergence Mz (herbicidal effect rating),[16]; Dosage 1 kg/ha,8
same,Pre-emergence Mz (herbicidal effect rating),[16]; Dosage 5 kg/ha,8
same,Foliar spray R (herbicidal effect rating),[17]; Dosage 1 kg/ha,4
same,Foliar spray R (herbicidal effect rating),[17]; Dosage 5 kg/ha,4
same,Foliar spray M (herbicidal effect rating),[18]; Dosage 1 kg/ha,8
same,Foliar spray M (herbicidal effect rating),[18]; Dosage 5 kg/ha,8
same,Foliar spray O (herbicidal effect rating),[19]; Dosage 1 kg/ha,4
same,Foliar spray O (herbicidal effect rating),[19]; Dosage 5 kg/ha,4
same,Foliar spray SB (herbicidal effect rating),[20]; Dosage 1 kg/ha,7
same,Foliar spray SB (herbicidal effect rating),[20]; Dosage 5 kg/ha,8
same,Foliar spray S (herbicidal effect rating),[21]; Dosage 1 kg/ha,2
same,Foliar spray S (herbicidal effect rating),[21]; Dosage 5 kg/ha,3
same,Foliar spray BG (herbicidal effect rating),[22]; Dosage 1 kg/ha,7
same,Foliar spray BG (herbicidal effect rating),[22]; Dosage 5 kg/ha,8
same,Foliar spray L (herbicidal effect rating),[23]; Dosage 1 kg/ha,6
same,Foliar spray L (herbicidal effect rating),[23]; Dosage 5 kg/ha,6
same,Foliar spray Mz (herbicidal effect rating),[24]; Dosage 1 kg/ha,4
same,Foliar spray Mz (herbicidal effect rating),[24]; Dosage 5 kg/ha,6
